According to ChEMBL document CHEMBL1909046, “DrugMatrix in vitro pharmacology data”:

Legend:
[1] = biological target: Epidermal growth factor receptor (Homo sapiens, UniProt P00533); assay: DRUGMATRIX: Protein Tyrosine Kinase, EGF Receptor enzyme inhibition (substrate: Poly(Glu:Tyr)); type: cell-based, Insect cells; conditions: Not Active = under 50% inhibition at 10 µM
[2] = biological target: T1, Muscarinic acetylcholine receptor M2 (Homo sapiens, UniProt P08172); type: cell membranes, CHO-K1, Membrane; conditions: cho-k1; further: in other assays of this panel Not Active means under 50% inhibition at 10 µM
T1 sequence (P08172 whole entry): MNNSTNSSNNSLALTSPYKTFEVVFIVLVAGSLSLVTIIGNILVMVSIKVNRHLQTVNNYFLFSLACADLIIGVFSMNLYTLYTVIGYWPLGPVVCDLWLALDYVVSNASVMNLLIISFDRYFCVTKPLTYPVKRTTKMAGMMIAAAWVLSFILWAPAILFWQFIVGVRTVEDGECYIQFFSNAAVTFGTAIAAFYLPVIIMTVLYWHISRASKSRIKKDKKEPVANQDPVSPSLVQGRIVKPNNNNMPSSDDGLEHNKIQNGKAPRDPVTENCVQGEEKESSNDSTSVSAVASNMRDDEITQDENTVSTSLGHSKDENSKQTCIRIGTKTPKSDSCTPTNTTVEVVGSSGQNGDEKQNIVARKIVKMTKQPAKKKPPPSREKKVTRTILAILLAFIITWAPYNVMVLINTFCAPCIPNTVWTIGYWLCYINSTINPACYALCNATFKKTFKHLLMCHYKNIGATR

Cytochrome P450 1A2 = biological target: T2, Cytochrome P450 1A2 (Homo sapiens, UniProt P05177); conditions: bti-tn-5b1-4; further: in other assays of this panel Not Active means under 50% inhibition at 10 µM
T2 sequence (P05177 whole entry): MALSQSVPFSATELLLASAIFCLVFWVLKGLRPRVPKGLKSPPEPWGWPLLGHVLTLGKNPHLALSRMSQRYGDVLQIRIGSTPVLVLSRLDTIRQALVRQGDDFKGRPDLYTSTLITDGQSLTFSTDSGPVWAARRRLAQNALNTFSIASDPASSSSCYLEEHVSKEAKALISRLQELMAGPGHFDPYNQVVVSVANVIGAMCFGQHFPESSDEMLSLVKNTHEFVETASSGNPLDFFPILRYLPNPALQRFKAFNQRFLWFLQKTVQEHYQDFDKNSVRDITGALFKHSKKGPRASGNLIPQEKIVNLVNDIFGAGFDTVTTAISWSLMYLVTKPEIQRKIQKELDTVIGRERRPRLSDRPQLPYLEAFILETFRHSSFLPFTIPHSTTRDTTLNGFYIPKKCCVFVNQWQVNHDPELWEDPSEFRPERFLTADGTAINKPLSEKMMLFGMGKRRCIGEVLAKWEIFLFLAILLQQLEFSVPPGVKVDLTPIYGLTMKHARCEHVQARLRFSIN

[3] = biological target: T3, Type-2 angiotensin II receptor (Homo sapiens, UniProt P50052); type: cell-based; conditions: cho-k1; further: in other assays of this panel Not Active means under 50% inhibition at 10 µM
T3 sequence (P50052 whole entry): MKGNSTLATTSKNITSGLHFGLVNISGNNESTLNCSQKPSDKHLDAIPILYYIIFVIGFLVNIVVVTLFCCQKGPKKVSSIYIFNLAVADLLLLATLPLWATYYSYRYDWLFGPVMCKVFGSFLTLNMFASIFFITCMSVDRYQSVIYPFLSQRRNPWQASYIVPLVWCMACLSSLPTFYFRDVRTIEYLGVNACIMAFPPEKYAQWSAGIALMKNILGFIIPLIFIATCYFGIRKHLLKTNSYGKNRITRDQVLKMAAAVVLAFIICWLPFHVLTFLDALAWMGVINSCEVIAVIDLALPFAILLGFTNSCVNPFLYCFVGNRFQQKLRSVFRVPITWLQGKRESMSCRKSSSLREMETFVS

[4] = DRUGMATRIX: Glutamate, NMDA, Agonism radioligand binding (ligand: [3H] CGP-39653); type: cell membranes, Rattus norvegicus, Wistar, Cerebral cortex, Membrane; conditions: Not Active = under 50% inhibition at 10 µM
Mu-type opioid receptor = Mu-type opioid receptor (Homo sapiens, UniProt P35372); assay: DRUGMATRIX: Opiate mu (OP3, MOP) radioligand binding (ligand: [3H] Diprenorphine); type: cell membranes, CHO-K1, Membrane; conditions: cho-k1; Not Active = under 50% inhibition at 10 µM
[5] = DRUGMATRIX: GABAA, Flunitrazepam, Central radioligand binding (ligand: [3H] Flunitrazepam); type: cell membranes, Rattus norvegicus, Wistar, Brain, Membrane; conditions: Not Active = under 50% inhibition at 10 µM
D(4) dopamine receptor = biological target: T4, D(4) dopamine receptor (Homo sapiens, UniProt P21917); assay: DRUGMATRIX: Dopamine D4.2 radioligand binding (ligand: [3H] Spiperone); type: cell membranes, CHO-K1, Membrane; conditions: cho-k1; Not Active = under 50% inhibition at 10 µM
T4 sequence (P21917 whole entry): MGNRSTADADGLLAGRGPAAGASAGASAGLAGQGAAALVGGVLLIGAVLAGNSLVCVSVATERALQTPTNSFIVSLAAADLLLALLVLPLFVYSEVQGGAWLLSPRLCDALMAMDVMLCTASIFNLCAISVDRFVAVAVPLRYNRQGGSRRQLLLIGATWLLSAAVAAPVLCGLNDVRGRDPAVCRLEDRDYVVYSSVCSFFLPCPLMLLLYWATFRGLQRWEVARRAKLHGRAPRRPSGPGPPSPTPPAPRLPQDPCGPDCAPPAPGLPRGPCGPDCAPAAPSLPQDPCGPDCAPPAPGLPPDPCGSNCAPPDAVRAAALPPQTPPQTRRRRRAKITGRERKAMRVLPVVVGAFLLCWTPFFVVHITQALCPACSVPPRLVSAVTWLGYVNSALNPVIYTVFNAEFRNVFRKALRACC

Mu-type opioid receptor, sequence (P35372 whole entry): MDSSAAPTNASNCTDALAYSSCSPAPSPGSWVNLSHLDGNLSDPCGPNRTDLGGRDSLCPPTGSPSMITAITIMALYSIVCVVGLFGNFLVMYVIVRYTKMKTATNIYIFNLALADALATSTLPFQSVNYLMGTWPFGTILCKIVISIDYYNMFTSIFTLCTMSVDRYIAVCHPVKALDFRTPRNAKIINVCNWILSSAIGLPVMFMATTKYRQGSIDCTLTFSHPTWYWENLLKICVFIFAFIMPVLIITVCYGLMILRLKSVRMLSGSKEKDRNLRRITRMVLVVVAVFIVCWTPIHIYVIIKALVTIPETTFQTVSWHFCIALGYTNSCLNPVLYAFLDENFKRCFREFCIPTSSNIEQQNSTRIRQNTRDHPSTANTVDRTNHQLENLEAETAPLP
Epidermal growth factor receptor, sequence (P00533 whole entry): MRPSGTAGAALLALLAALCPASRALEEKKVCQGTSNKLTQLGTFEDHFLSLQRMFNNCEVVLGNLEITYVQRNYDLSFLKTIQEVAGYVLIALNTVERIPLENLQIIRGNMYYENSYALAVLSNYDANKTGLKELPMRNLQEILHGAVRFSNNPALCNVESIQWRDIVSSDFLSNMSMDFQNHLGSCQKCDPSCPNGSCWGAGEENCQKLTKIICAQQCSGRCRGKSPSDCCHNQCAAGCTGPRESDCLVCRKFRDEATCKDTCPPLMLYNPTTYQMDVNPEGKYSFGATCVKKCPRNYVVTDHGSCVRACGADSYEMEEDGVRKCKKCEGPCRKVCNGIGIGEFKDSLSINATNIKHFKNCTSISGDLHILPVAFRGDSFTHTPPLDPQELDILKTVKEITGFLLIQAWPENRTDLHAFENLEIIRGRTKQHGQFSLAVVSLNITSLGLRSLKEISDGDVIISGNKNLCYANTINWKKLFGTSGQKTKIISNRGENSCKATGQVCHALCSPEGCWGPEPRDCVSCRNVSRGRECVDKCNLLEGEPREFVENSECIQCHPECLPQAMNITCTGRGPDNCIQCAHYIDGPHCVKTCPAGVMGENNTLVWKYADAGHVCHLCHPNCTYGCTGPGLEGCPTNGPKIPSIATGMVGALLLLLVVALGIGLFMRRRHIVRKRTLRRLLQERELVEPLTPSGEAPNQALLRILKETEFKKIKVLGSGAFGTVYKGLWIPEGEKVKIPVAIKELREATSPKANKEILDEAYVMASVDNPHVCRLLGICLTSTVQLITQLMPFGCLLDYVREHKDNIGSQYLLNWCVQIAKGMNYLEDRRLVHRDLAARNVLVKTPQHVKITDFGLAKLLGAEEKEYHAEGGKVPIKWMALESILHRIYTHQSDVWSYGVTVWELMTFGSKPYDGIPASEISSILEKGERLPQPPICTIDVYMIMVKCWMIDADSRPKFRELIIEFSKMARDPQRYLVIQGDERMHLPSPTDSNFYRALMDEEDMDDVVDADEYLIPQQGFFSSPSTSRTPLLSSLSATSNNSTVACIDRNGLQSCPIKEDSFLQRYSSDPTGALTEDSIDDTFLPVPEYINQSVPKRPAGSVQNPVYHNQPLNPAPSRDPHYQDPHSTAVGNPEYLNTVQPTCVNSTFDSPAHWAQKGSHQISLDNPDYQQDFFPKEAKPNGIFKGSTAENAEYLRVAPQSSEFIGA

Compound	IC50 ([1]; insect cells)	IC50 [2]	IC50 (Cytochrome P450 1A2)	Ki (Cytochrome P450 1A2)	IC50 [3]	IC50 [4]	Ki [4]	IC50 (Mu-type opioid receptor)	IC50 [5]	Ki [5]	IC50 (D(4) dopamine receptor)	IC50 ([1]; read-out: IC50) [µM]	Ki [3]
COc1ccc(/C=C/C(=O)Nc2ccccc2C(=O)O)cc1OC	Not Active	Not Active	Not Active	Not Active	Not Active	Not Active	Not Active	Not Active	Not Active	Not Active	Not Active	–	–
CC1=C(CC(=O)O)c2cc(F)ccc2/C1=C\c1ccc(S(C)(=O)=O)cc1 [EXISULIND]	Not Active	Not Active	Not Active	Not Active	Not Active	Not Active	Not Active	Not Active	Not Active	Not Active	Not Active	–	–
CC(C)(C)NC[C@H](O)COc1nsnc1N1CCOCC1 [TIMOLOL]	Not Active	Not Active	Not Active	Not Active	Not Active	Not Active	Not Active	Not Active	Not Active	Not Active	Not Active	–	–
Nc1nc2c(c(=O)[nH]1)N(C=O)C(CNc1ccc(C(=O)N[C@@H](CCC(=O)O)C(=O)O)cc1)CN2 (stereo partly specified) [LEUCOVORIN]	Not Active	Not Active	Not Active	Not Active	Not Active	Not Active	Not Active	Not Active	Not Active	Not Active	Not Active	–	–
COc1cc(C(=O)NS(=O)(=O)c2ccccc2C)ccc1Cc1cn(C)c2ccc(NC(=O)OC3CCCC3)cc12 [ZAFIRLUKAST]	–	Not Active	Not Active	Not Active	Not Active	Not Active	Not Active	Not Active	Not Active	Not Active	Not Active	5.75	–
CCOC(N)=O	Not Active	Not Active	Not Active	Not Active	Not Active	Not Active	Not Active	Not Active	Not Active	Not Active	Not Active	–	–
CN(CCOc1ccc(CC2SC(=O)NC2=O)cc1)c1ccccn1 (stereo unspecified) [ROSIGLITAZONE]	Not Active	Not Active	Not Active	Not Active	Not Active	Not Active	Not Active	Not Active	Not Active	Not Active	Not Active	–	–
CC(=O)O[C@H]1C[C@@H]2CC[C@@H]3[C@H](CC[C@@]4(C)[C@H]3C[C@H]([N+]3(C)CCCCC3)[C@@H]4OC(C)=O)[C@@]2(C)C[C@@H]1N1CCCCC1.[Br-] [VECURONIUM BROMIDE]	Not Active	Not Active	Not Active	Not Active	Not Active	Not Active	Not Active	Not Active	Not Active	Not Active	Not Active	–	–
Nc1ccc(S(=O)(=O)Nc2ncccn2)cc1 [SULFADIAZINE]	Not Active	Not Active	Not Active	Not Active	Not Active	Not Active	Not Active	Not Active	Not Active	Not Active	Not Active	–	–
Nc1ccc(S(=O)(=O)Nc2nccs2)cc1 [SULFATHIAZOLE]	Not Active	Not Active	Not Active	Not Active	Not Active	Not Active	Not Active	Not Active	Not Active	Not Active	Not Active	–	–
C#CCN(C)[C@H](C)Cc1ccccc1 [SELEGILINE]	Not Active	Not Active	Not Active	Not Active	Not Active	Not Active	Not Active	Not Active	Not Active	Not Active	Not Active	–	–
CNS(=O)(=O)Cc1ccc2[nH]cc(CCN(C)C)c2c1	Not Active	Not Active	Not Active	Not Active	Not Active	Not Active	Not Active	Not Active	Not Active	Not Active	Not Active	–	–
C[C@]12CC[C@H]3[C@@H](CCC4=CC(=O)CC[C@@]43C)[C@@H]1CC[C@@H]2O [TESTOSTERONE]	Not Active	Not Active	Not Active	Not Active	Not Active	Not Active	Not Active	Not Active	Not Active	Not Active	Not Active	–	–
C[C@@H]1C[C@H]2[C@@H]3CCC4=CC(=O)C=C[C@]4(C)C3=CC[C@]2(C)[C@H]1C(=O)CN1CCN(c2cc(N3CCCC3)nc(N3CCCC3)n2)CC1 [TIRILAZAD]	–	Not Active	Not Active	Not Active	–	Not Active	Not Active	Not Active	Not Active	Not Active	Not Active	20.4	Not Active
CO[C@H]1C[C@@H]2CC[C@@H](C)[C@@](O)(O2)C(=O)C(=O)N2CCCC[C@H]2C(=O)O[C@H]([C@H](C)C[C@@H]2CC[C@@H](O)[C@H](OC)C2)CC(=O)[C@H](C)/C=C(\C)[C@@H](O)[C@@H](OC)C(=O)[C@H](C)C[C@H](C)/C=C/C=C/C=C/1C [SIROLIMUS]	Not Active	Not Active	Not Active	Not Active	Not Active	Not Active	Not Active	Not Active	Not Active	Not Active	Not Active	–	–
O=P(O)(O)C(O)(Cc1cccnc1)P(=O)(O)O [RISEDRONIC ACID]	Not Active	Not Active	Not Active	Not Active	Not Active	Not Active	Not Active	Not Active	Not Active	Not Active	Not Active	–	–
